In ChEMBL document CHEMBL1201862, “PubChem BioAssay data set” (2004):
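The compound was tested at five concentrations on cells cultured in 96-well plates, with a 48-hour exposure period. GI50 is the concentration that inhibits growth by half.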 Calls of active or inactive are those of the source. No stated cut-off is given here; in the data, active = GI50 up to about 1.1 µM and inactive = higher.

Experiments:
Experiment in all cases: NCI tumour cell line growth inhibition, 48 h
MOLT-4 = system: MOLT-4
SK-OV-3 = system: SK-OV-3
HOP-62 = system: HOP-62
HCC 2998 = system: HCC 2998
DLD-1 = system: DLD-1
SK-MEL-28 = system: SK-MEL-28
HCT-15 = system: HCT-15
NCI-H460 = system: NCI-H460
LXFL 529 = system: LXFL 529
786-0 = system: 786-0
SF-539 = system: SF-539
SF-268 = system: SF-268
NCI-H226 = system: NCI-H226
COLO 205 = system: COLO 205
ACHN = system: ACHN
SK-MEL-2 = system: SK-MEL-2
Malme-3M = system: Malme-3M
SNB-19 = system: SNB-19
RXF 393 = system: RXF 393
DMS-273 = system: DMS-273
CCRF-CEM = system: CCRF-CEM
SF-295 = system: SF-295
UACC-257 = system: UACC-257
A498 = system: A498
U-251 = system: U-251
RPMI-8226 = system: RPMI-8226
HCT-116 = system: HCT-116
NCI-H522 = system: NCI-H522
KM12 = system: KM12
CAKI-1 = system: CAKI-1
OVCAR-3 = system: OVCAR-3
A549 = system: A549
SNB-78 = system: SNB-78
SN12C = system: SN12C
M14 = system: M14
HL-60 = system: HL-60
HOP-92 = system: HOP-92
NCI-H23 = system: NCI-H23
UACC-62 = system: UACC-62
HOP-18 = system: HOP-18
OVCAR-5 = system: OVCAR-5
TK-10 = system: TK-10
SR = system: SR
OVCAR-4 = system: OVCAR-4
SNB-75 = system: SNB-75
UO-31 = system: UO-31
OVCAR-8 = system: OVCAR-8
LOX IMVI = system: LOX IMVI
SW-620 = system: SW-620
HT-29 = system: HT-29
KM-20L2 = system: KM-20L2
IGROV-1 = system: IGROV-1
SK-MEL-5 = system: SK-MEL-5
K562 = system: K562
M19-MEL = system: M19-MEL
EKVX = system: EKVX
DMS-114 = system: DMS-114
XF498 = system: XF498

SMILES: CC(C)(C)c1cc2c(OP(c3ccccc3)c3ccccc3)c(c1)Cc1cc(C(C)(C)C)cc(c1OP(c1ccccc1)c1ccccc1)Cc1cc(C(C)(C)C)cc(c1OP(c1ccccc1)c1ccccc1)Cc1cc(C(C)(C)C)cc(c1OP(c1ccccc1)c1ccccc1)C2
- GI50 (MOLT-4): > 5 µM (inactive)
- GI50 (SK-OV-3): > 5 µM (inactive)
- GI50 (HOP-62): > 5 µM (inactive)
- GI50 (HCC 2998): > 5 µM (inactive)
- GI50 (DLD-1): > 5 µM (inactive)
- GI50 (SK-MEL-28): > 5 µM (inactive)
- GI50 (HCT-15): > 5 µM
- GI50 (NCI-H460): > 5 µM (inactive)
- GI50 (LXFL 529): > 5 µM (inactive)
- GI50 (786-0): > 5 µM (inactive)
- GI50 (SF-539): > 5 µM (inactive)
- GI50 (SF-268): > 5 µM (inactive)
- GI50 (NCI-H226): > 5 µM (inactive)
- GI50 (COLO 205): > 5 µM (inactive)
- GI50 (ACHN): > 5 µM (inactive)
- GI50 (SK-MEL-2): > 5 µM (inactive)
- GI50 (Malme-3M): > 5 µM (inactive)
- GI50 (SNB-19): > 5 µM (inactive)
- GI50 (RXF 393): 19.8 µM (inactive)
- GI50 (DMS-273): > 5 µM (inactive)
- GI50 (CCRF-CEM): > 5 µM (inactive)
- GI50 (SF-295): > 5 µM (inactive)
- GI50 (UACC-257): > 5 µM (inactive)
- GI50 (A498): > 5 µM (inactive)
- GI50 (U-251): > 5 µM (inactive)
- GI50 (RPMI-8226): > 5 µM (inactive)
- GI50 (HCT-116): > 5 µM (inactive)
- GI50 (NCI-H522): > 5 µM (inactive)
- GI50 (KM12): > 5 µM (inactive)
- GI50 (CAKI-1): > 5 µM (inactive)
- GI50 (OVCAR-3): > 5 µM (inactive)
- GI50 (A549): > 5 µM (inactive)
- GI50 (SNB-78): > 5 µM (inactive)
- GI50 (SN12C): > 5 µM (inactive)
- GI50 (M14): > 5 µM (inactive)
- GI50 (HL-60): > 5 µM (inactive)
- GI50 (HOP-92): > 5 µM (inactive)
- GI50 (NCI-H23): > 5 µM (inactive)
- GI50 (UACC-62): > 5 µM (inactive)
- GI50 (HOP-18): > 5 µM (inactive)
- GI50 (OVCAR-5): > 5 µM (inactive)
- GI50 (TK-10): > 5 µM (inactive)
- GI50 (SR): 2.66 µM (inactive)
- GI50 (OVCAR-4): > 5 µM (inactive)
- GI50 (SNB-75): > 5 µM (inactive)
- GI50 (UO-31): > 5 µM (inactive)
- GI50 (OVCAR-8): > 5 µM (inactive)
- GI50 (LOX IMVI): > 5 µM (inactive)
- GI50 (SW-620): > 5 µM (inactive)
- GI50 (HT-29): > 5 µM (inactive)
- GI50 (KM-20L2): > 5 µM (inactive)
- GI50 (IGROV-1): > 5 µM (inactive)
- GI50 (SK-MEL-5): > 5 µM (inactive)
- GI50 (K562): > 5 µM (inactive)
- GI50 (M19-MEL): > 5 µM (inactive)
- GI50 (EKVX): > 5 µM (inactive)
- GI50 (DMS-114): > 5 µM (inactive)

SMILES: NC(=O)C1(c2ccccc2)Nc2ccccc2S1 (configuration not stated)
- GI50 (MOLT-4): > 100 µM (inactive)
- GI50 (SK-OV-3): > 100 µM (inactive)
- GI50 (HOP-62): > 100 µM (inactive)
- GI50 (HCC 2998): > 100 µM (inactive)
- GI50 (DLD-1): > 100 µM (inactive)
- GI50 (SK-MEL-28): > 100 µM (inactive)
- GI50 (HCT-15): > 100 µM
- GI50 (XF498): > 100 µM (inactive)
- GI50 (NCI-H460): > 100 µM (inactive)
- GI50 (LXFL 529): > 100 µM (inactive)
- GI50 (SF-539): > 100 µM (inactive)
- GI50 (SF-268): > 100 µM (inactive)
- GI50 (NCI-H226): > 100 µM (inactive)
- GI50 (COLO 205): > 100 µM (inactive)
- GI50 (ACHN): > 100 µM (inactive)
- GI50 (SK-MEL-2): > 100 µM (inactive)
- GI50 (Malme-3M): > 100 µM (inactive)
- GI50 (SNB-19): > 100 µM (inactive)
- GI50 (RXF 393): > 100 µM (inactive)
- GI50 (DMS-273): > 100 µM (inactive)
- GI50 (CCRF-CEM): > 100 µM (inactive)
- GI50 (U-251): > 100 µM (inactive)
- GI50 (RPMI-8226): > 100 µM (inactive)
- GI50 (HCT-116): > 100 µM (inactive)
- GI50 (NCI-H522): > 100 µM (inactive)
- GI50 (KM12): > 100 µM (inactive)
- GI50 (CAKI-1): > 100 µM (inactive)
- GI50 (OVCAR-3): > 100 µM (inactive)
- GI50 (A549): > 100 µM (inactive)
- GI50 (SN12C): > 100 µM (inactive)
- GI50 (M14): > 100 µM (inactive)
- GI50 (HL-60): > 100 µM (inactive)
- GI50 (NCI-H23): > 100 µM (inactive)
- GI50 (UACC-62): > 100 µM (inactive)
- GI50 (HOP-18): > 100 µM (inactive)
- GI50 (OVCAR-5): > 100 µM (inactive)
- GI50 (TK-10): > 100 µM (inactive)
- GI50 (SR): > 100 µM (inactive)
- GI50 (OVCAR-4): > 10 µM (inactive)
- GI50 (UO-31): > 100 µM (inactive)
- GI50 (OVCAR-8): > 100 µM (inactive)
- GI50 (LOX IMVI): > 100 µM (inactive)
- GI50 (SW-620): > 100 µM (inactive)
- GI50 (HT-29): > 100 µM (inactive)
- GI50 (KM-20L2): > 100 µM (inactive)
- GI50 (SK-MEL-5): > 100 µM (inactive)
- GI50 (K562): > 100 µM (inactive)
- GI50 (M19-MEL): > 100 µM (inactive)
- GI50 (EKVX): > 100 µM (inactive)
- GI50 (DMS-114): > 100 µM (inactive)
